Data as given in ChEMBL document CHEMBL5096229, “A 1,2,3-Triazole Derivative of Quinazoline Exhibits Antitumor Activity by Tethering RNF168 to SQSTM1/P62” (J Med Chem, 2022).
pIC50, pKd: −log10 of the molar value. Calls of active or inactive are those of the source. The rule behind the calls is not given here.

Tests used:
[1] = tested on: A549; experiment: Cytotoxicity against human A549 cells assessed as reduction in cell viability incubated for 72 hrs by MTS assay; type: functional, cell-based; conditions: A549, 72 h
[2] = tested on: A-375; experiment: Cytotoxicity against human A-375 cells assessed as reduction in cell viability incubated for 72 hrs by MTS assay; type: functional, cell-based; conditions: A-375, 72 h
[3] = tested on: HepG2; experiment: Cytotoxicity against human HepG2 cells assessed as reduction in cell viability incubated for 72 hrs by MTS assay; type: functional, cell-based; conditions: HepG2, 72 h
[4] = tested on: MCF7; experiment: Cytotoxicity against human MCF7 cells assessed as reduction in cell viability incubated for 72 hrs by MTS assay; type: functional, cell-based; conditions: MCF7, 72 h
[5] = tested on: MGC-803; experiment: Cytotoxicity against human MGC-803 cells assessed as reduction in cell viability incubated for 72 hrs by MTS assay; type: functional, cell-based; conditions: MGC-803, 72 h
[6] = tested on: HCT-116; experiment: Induction of cell cycle arrest in human HCT-116 cells assessed as accumulation at G0/G1 phase at 1 uM after 24 hrs by propidium iodide-staining based flow cytometry (reference value: 58.01 +/- 1.77%); type: functional
[7] = tested on: HCT-116; experiment: Induction of cell cycle arrest in human HCT-116 cells assessed as accumulation at G0/G1 phase at 5 uM after 24 hrs by propidium iodide-staining based flow cytometry (reference value: 58.01 +/- 1.77%); type: functional
[8] = tested on: HCT-116; experiment: Induction of cell cycle arrest in human HCT-116 cells assessed as accumulation at S phase at 1 uM after 24 hrs by propidium iodide-staining based flow cytometry (reference value: 17.17 +/- 0.18%); type: functional
[9] = tested on: HCT-116; experiment: Induction of cell cycle arrest in human HCT-116 cells assessed as accumulation at S phase at 2 uM after 24 hrs by propidium iodide-staining based flow cytometry (reference value: 17.17 +/- 0.18%); type: functional
[10] = tested on: HCT-116; experiment: Induction of cell cycle arrest in human HCT-116 cells assessed as accumulation at S phase at 5 uM after 24 hrs by propidium iodide-staining based flow cytometry (reference value: 17.17 +/- 0.18%); type: functional
[11] = tested on: HCT-116; experiment: Induction of cell cycle arrest in human HCT-116 cells assessed as accumulation at G2/M phase at 5 uM after 24 hrs by propidium iodide-staining based flow cytometry (reference value: 23.25 +/- 1.38%); type: functional
[12] = tested on: U2OS; experiment: Inhibition of homologous recombinant repair in human U2OS cells assessed as I-SceI induced double […] break pretreated with I-SceI for 36 hrs followed by compound addition and measured after 12 hrs; type: functional, cell-based; conditions: dose 0.625-2.5 µM, DDE = dose-dependent effect
[13] = Half life in BALB/c mouse at 10 mg/kg; type: ADME, organism-based; conditions: in vivo
[14] = Cmax in BALB/c mouse at 5 mg/kg; type: ADME, organism-based; design: dose 5 mg/kg; conditions: in vivo
[15] = AUCt in BALB/c mouse at 5 mg/kg; type: ADME, organism-based; design: dose 5 mg/kg; conditions: in vivo
[16] = AUCt in BALB/c mouse at 20 mg/kg; type: ADME, organism-based; design: dose 20 mg/kg; conditions: in vivo
[17] = Clearance in BALB/c mouse at 10 mg/kg; type: ADME, organism-based; conditions: in vivo
[18] = Metabolic stability in human liver microsomes assessed as half life at 0.5 uM by LC-MS analysis; type: ADME, Microsome
[19] = Metabolic stability in human liver microsomes assessed as clearance at 0.5 uM by LC-MS analysis; type: ADME, Microsome
[20] = Toxicity in BALB/c mouse assessed as animal death at 100 mg/kg, ip after 7 days; type: organism-based; conditions: in vivo, 168 h, time 7 day
[21] = Toxicity in BALB/c mouse assessed as maximum tolerable dose; conditions: in vivo
[22] = Toxicity in BALB/c nude mouse assessed as animal death 25 mg/kg, ip after 7 days; type: organism-based; conditions: in vivo, 168 h, time 7 day
[23] = Toxicity in BALB/c mouse assessed as diarrhea 50 mg/kg, ip after 7 days; type: organism-based; conditions: in vivo, 168 h, time 7 day
[24] = Toxicity in BALB/c nude mouse assessed as animal death 12.5 mg/kg, ip after 7 days; type: organism-based; conditions: in vivo, 168 h, time 7 day
[25] = Toxicity in BALB/c nude mouse assessed as maximum tolerable dose; conditions: in vivo
[26] = tested on: HCT-116; experiment: Antitumor activity against human HCT-116 cells xenografted with BALB/c nude mouse assessed as tumor growth inhibition at 5 to 10 mg/kg, ip administered every 3 days upto 22 days by H and E staining based assay; type: functional, organism-based; conditions: dose 5-10 mg/kg, time <= 22.0 day
[27] = tested on: HCT-116; experiment: Antitumor activity against human HCT-116 cells xenografted with BALB/c nude mouse assessed as increase in cleaved PARP1 positive tumor cells at 5 to 10 mg/kg, ip administered every 3 days upto 22 days by immuno histochemistry assay; type: functional, organism-based; conditions: dose 5-10 mg/kg, time <= 22.0 day
[28] = biological target: T1, Sequestosome-1 (Homo sapiens, UniProt Q13501); experiment: Binding affinity to P62 (unknown origin) by MST assay
[29] = biological target: T1, Sequestosome-1; experiment: Binding affinity to N-terminal P62 LB domain (unknown origin) expressed in HEK293T cells; type: cell-based; conditions: filed as activator
[30] = tested on: Bacteria; experiment: Induction of bacteria His-tagged P62 to GST-tagged RNF168 protein-protein interaction by co-immunoprecipitation assay
[31] = biological target: E3 ubiquitin-protein ligase RNF168 (Homo sapiens, UniProt Q8IYW5); experiment: Inhibition of RNF168 activity in human HCT-116 cells assessed as reduction in gamma-H2AX ubiquitination by immunoblotting assay; type: cell-based
[32] = tested on: HCT-116; experiment: Induction of x-ray sensitivity in human HCT-116 cells; type: functional, cell-based
[33] = tested on: U2OS; experiment: Induction of x-ray sensitivity in human U2OS cells; type: functional, cell-based
[34] = biological target: T2, Glucocorticoid receptor (Homo sapiens) (UniProt P04150); experiment: Inhibition of GR (unknown origin) at 10 uM
T2 sequence (whole entry): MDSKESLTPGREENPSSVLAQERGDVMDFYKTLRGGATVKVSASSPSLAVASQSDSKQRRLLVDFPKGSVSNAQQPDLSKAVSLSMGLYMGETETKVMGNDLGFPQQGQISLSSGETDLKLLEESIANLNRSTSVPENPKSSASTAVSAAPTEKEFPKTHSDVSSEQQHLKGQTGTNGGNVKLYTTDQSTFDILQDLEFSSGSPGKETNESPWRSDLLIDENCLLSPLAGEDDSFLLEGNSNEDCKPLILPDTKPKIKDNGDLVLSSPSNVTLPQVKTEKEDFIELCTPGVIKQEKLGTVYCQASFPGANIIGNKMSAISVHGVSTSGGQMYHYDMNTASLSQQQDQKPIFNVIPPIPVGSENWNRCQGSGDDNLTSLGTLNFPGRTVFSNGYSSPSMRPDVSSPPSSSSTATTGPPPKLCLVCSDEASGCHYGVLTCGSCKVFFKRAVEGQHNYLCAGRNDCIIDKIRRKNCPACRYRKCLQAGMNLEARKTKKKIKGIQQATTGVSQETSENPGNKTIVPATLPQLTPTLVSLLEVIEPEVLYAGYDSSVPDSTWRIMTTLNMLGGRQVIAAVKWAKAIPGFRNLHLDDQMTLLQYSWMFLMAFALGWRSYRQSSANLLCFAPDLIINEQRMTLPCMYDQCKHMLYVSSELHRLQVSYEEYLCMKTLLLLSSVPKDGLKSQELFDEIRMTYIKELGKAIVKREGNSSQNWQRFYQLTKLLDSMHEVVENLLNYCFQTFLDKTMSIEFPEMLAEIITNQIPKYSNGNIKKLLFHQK

T1 sequence (Q13501 whole entry, the tested form may be a part): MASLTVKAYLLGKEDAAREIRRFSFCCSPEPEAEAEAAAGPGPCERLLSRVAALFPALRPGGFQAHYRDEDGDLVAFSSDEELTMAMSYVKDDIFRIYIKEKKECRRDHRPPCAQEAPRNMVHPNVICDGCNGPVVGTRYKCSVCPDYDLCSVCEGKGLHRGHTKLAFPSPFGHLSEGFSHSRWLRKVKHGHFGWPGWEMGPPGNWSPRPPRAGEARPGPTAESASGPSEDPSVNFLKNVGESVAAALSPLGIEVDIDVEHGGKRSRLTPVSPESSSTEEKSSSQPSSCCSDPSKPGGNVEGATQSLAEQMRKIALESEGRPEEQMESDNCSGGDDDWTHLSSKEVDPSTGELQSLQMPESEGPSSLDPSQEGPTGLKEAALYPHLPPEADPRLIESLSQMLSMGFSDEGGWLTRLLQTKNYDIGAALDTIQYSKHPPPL
Sequence of E3 ubiquitin-protein ligase RNF168 (Q8IYW5 whole entry): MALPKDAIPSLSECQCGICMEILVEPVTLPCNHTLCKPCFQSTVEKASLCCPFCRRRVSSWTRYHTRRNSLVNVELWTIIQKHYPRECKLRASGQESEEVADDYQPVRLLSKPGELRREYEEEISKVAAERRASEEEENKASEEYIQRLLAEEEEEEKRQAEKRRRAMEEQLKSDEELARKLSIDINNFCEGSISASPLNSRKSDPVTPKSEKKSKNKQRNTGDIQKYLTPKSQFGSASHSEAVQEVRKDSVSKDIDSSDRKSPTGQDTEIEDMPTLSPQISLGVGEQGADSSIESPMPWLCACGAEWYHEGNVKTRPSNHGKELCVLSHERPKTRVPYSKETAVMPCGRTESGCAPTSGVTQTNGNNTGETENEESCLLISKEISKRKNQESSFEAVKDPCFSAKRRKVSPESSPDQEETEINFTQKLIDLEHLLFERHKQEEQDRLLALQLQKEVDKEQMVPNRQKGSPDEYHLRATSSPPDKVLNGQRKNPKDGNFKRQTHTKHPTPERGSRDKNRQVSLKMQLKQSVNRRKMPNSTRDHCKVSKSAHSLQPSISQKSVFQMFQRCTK

SMILES: COc1cc(-n2cc(-c3ccc4nc(N)nc(N)c4c3)nn2)cc(OC)c1OC
- pIC50 [1]: 5.93
- pIC50 [2]: 5.71
- pIC50 [3]: 4.71
- pIC50 [4]: 5.55
- pIC50 [5]: 5.73
- Activity [6]: 53%
- Activity [7]: 50.82%
- Activity [8]: 24.42%
- Activity [9]: 21.51%
- Activity [10]: 18.77%
- Activity [11]: 35.34%
- inhibition [12]: Dde
- half-life [13]: 31 h
- Cmax [14]: 26.1 ng/mL
- AUC(0-t) [15]: 215 ng·h/mL
- AUC(0-t) [16]: 1000 ng·h/mL
- clearance [17]: 276 mL/min/kg
- half-life at 0.5 µM [18]: 7.17 h
- CLH [19]: 1.87 mL/min
- Activity [20]: Toxic
- MTD [21]: 50 mg/kg
- Activity [22]: Toxic
- Activity [23]: Toxic
- Activity [24]: Toxic
- MTD [25]: 12.5 mg/kg
- Activity [26]: Active
- Activity [27]: Active
- pKd [28]: 5.83
- Activity [29]: Active
- Activity [30]: Active
- inhibition [31]: Active
- Activity [32]: Active
- Activity [33]: Active
- inhibition [34]: Active
